# Data reported in ChEMBL document CHEMBL4043090 (Bioorg Med Chem, 2017).
# Experiments:
# [1] = system: PBMC; experiment: Antiviral activity against HIV-1 Bal infected in human PBMC by MTS assay; type: functional, cell-based
# [2] = Therapeutic index, ratio of TC50 for human PBMC to IC50 for HIV-1 Bal infected in human PBMC
# [3] = system: Human immunodeficiency virus 1; experiment: microbe, parasite or virus in culture; conditions: Human immunodeficiency virus 1, NL4-3, MAGI-CCR5, 48 h
# Description: Antiviral activity against wild type HIV-1 NL4-3 infected in human MAGI-CCR5 cells assessed as reduction in viral infection after 48 hrs by fluorescence based beta-galactosidase reporter gene assay
# [4] = system: Human immunodeficiency virus 1; experiment: Antiviral activity against HIV-1 Bal infected in human MAGI-CCR5 cells assessed as reduction in viral infection after 48 hrs by fluorescence based beta-galactosidase reporter gene assay; type: functional, cell-based; conditions: for IC50 / IC90: Human immunodeficiency virus 1, Bal, MAGI-CCR5, 48 h
# [5] = system: Human immunodeficiency virus 1; type: functional, cell-based; conditions: Human immunodeficiency virus 1, A17, MAGI-CCR5, 48 h
# [6] = Cytotoxicity against human PBMC assessed as reduction in cell viability by MTS assay; type: cell-based; conditions: read-out: TC50 (the source's name)
# [7] = Therapeutic index, ratio of TC50 for human MAGI-CCR5 cells to IC50 for HIV-1 NL4-3 infected in MAGI-CCR5 cells
# [8] = Therapeutic index, ratio of TC50 for human MAGI-CCR5 cells to IC50 for HIV-1 Bal infected in MAGI-CCR5 cells
# [9] = Cytotoxicity against human MAGI-CCR5 cells assessed as reduction in cell viability after 48 hrs by MTS assay; type: cell-based; conditions: read-out: TC50
# [10] = Metabolic stability in rat liver microsomes assessed as compound remaining at 4 uM preincubated for 5 mins followed by NADPH addition measured after 60 mins by LC/MS analysis; type: ADME, microsome; conditions: read-out: Stability
# [11] = Metabolic stability in rat plasma assessed as compound remaining at 100 uM after 1 hr by LC/MS analysis; type: ADME, cell-free; conditions: read-out: Stability
Structure (SMILES),IC50 [1],IC90 [1],TI [2],IC50 [3],IC90 [3],Activity [4],IC50 [4],IC90 [4],IC50 [5],IC90 [5],CC50 [6],TI [7],TI [8],CC50 at 48 h [9],"remaining at 1 h, 4 µM [10]","remaining at 1 h, 100 µM [11]"
CC1=C(c2nc(-c3ccc(C#N)cc3)cs2)C(c2ccc(C(F)(F)F)nc2)NC(=O)N1 (stereo not drawn),1200 nM,4600 nM,83,860 nM,7700 nM,Dose-dependent effect,1100 nM,7300 nM,> 100000 nM,> 100000 nM,> 100000 nM,>116,91,> 100000 nM,–,–
COc1ccc(C2NC(=O)NC(C)=C2c2nc(-c3ccc(C#N)cc3)cs2)cc1 (stereo not drawn),120 nM,300 nM,638,50 nM,620 nM,Dose-dependent effect,80 nM,370 nM,3400 nM,24000 nM,76600 nM,110,88,7000 nM,63.1%,96%
CC1=C(c2nc(-c3ccc(C#N)cc3)cs2)C(c2ccc(Br)nc2)NC(=O)N1 (stereo not drawn),210 nM,570 nM,476,500 nM,3200 nM,Dose-dependent effect,350 nM,1400 nM,> 100000 nM,> 100000 nM,> 100000 nM,>200,286,> 100000 nM,67.6%,98.3%
CC1=C(c2nc(-c3ccc(C#N)cc3)cs2)C(c2ccc(Cl)nc2)NC(=O)N1 (stereo not drawn),380 nM,940 nM,263,–,–,Dose-dependent effect,480 nM,2400 nM,–,–,> 100000 nM,–,208,> 100000 nM,63.4%,91.7%
COc1ccc(C2NC(=O)NC(C)=C2c2nc(-c3ccc(C#N)cc3)cs2)cn1 (stereo not drawn),120 nM,430 nM,833,< 320 nM,1900 nM,Dose-dependent effect,100 nM,580 nM,> 100000 nM,> 100000 nM,> 100000 nM,>313,100,> 10000 nM,69.4%,100%
CC1=C(c2nc(-c3ccc(C#N)cc3)cs2)C(c2ccc(O)cc2)NC(=O)N1 (stereo not drawn),40 nM,120 nM,2500,60 nM,620 nM,Dose-dependent effect,40 nM,520 nM,28000 nM,95000 nM,> 100000 nM,765,250,> 10000 nM,100%,100%
CC1=C(c2nc(-c3ccc(C#N)cc3)cs2)C(c2cccc(O)c2)NC(=O)N1 (stereo not drawn),190 nM,660 nM,442,–,–,Dose-dependent effect,440 nM,2100 nM,–,–,84000 nM,–,223,98000 nM,52.4%,88.5%
COc1ncccc1C1NC(=O)NC(C)=C1c1nc(-c2ccc(C#N)cc2)cs1 (stereo not drawn),2600 nM,7300 nM,39,–,–,Dose-dependent effect,3800 nM,66000 nM,–,–,> 100000 nM,–,26,> 100000 nM,–,–
CC1=C(c2nc(-c3ccc(F)cc3)cs2)C(c2cccc(O)c2)NC(=O)N1 (stereo not drawn),8000 nM,18000 nM,7.3,–,–,Dose-dependent effect,3800 nM,50000 nM,–,–,58000 nM,–,16,60000 nM,–,–
